# Reference: US20150322051A1, “Macrocyclic picolinamides as fungicides” (Dow AgroSciences LLC, priority 2014, published 2015)
# Columns and labels:
# [1] = tested on: Glomerella lagenarium; anamorph: Colletotrichum lagenarium (COLLLA); assay: Cucumber anthracnose (COLLLA) whole-plant fungicidal test; format: in vivo; details: 1 Day Protectant
# Experimental: (§1) All fungicides were evaluated using the aforementioned method for their activity vs. all target diseases, unless stated otherwise. Wheat leaf blotch and brown rust activity were also evaluated using track spray applications, in which case the fungicides were formulated as EC formulations, containing 0.1% Trycol 5941 in the spray solutions. Wheat plants (variety Yuma) were grown from seed in a greenhouse in 50% mineral soil/50% soil-less Metro mix until the first leaf was fully emerged, with 7-10 seedlings per pot. These plants were inoculated with an aqueous spore suspension of Septoria tritici either prior to or after fungicide treatments. After inoculation the plants were kept in 100% relative humidity (one day in a dark dew chamber followed by two to three days in a lighted dew chamber at 20° C.) to permit spores to germinate and infect the leaf. The plants were then transferred to a greenhouse set at 20° C. for disease to develop. When disease symptoms were fully expressed on the 1st leaves of untreated plants, infection levels were assessed on a scale of 0 to 100 percent disease severity. Percent disease control was calculated using the ratio of disease severity on treated plants relative to untreated plants. Cucumber seedlings (variety Bush Pickle) were propagated in soil-less Metro mix, with each pot having one plant, and used in the test when 12 to 14 days old. […]
# [2] = tested on: Cercospora beticola (CERCBE); assay: Leaf spot of sugar beets (CERCBE) whole-plant fungicidal test; format: in vivo; details: sugar beet, 1 Day Protectant
# Experimental: as §1, with “Sugar beet plants” for “Cucumber seedlings”, “HH88)” for “Bush Pickle)”, “grown” for “propagated”, “mix” for “mix, with each pot having one plant,”, “trimmed regularly” for “used in the test when 12”, “maintain a uniform plant size prior to test.” for “14 days old.”
# [3] = tested on: Phakopsora pachyrhizi (PHAKPA); assay: Asian soybean rust (PHAKPA) whole-plant fungicidal test
# [4] = tested on: Alternaria solani (ALTESO); assay: Tomato early blight (ALTESO) whole-plant fungicidal test; format: in vivo; details: 1 Day Protectant
# Experimental: as §1, with “Tomato plants” for “Cucumber seedlings”, “Outdoor Girl)” for “Bush Pickle)”, “used” for “used in the test”
# [5] = tested on: Rhyncosporium secalis (RHYNSE); assay: Barley scald (RHYNSE) whole-plant fungicidal test; format: in vivo; details: 1 Day Protectant
# Experimental: as §1, with “Barley” for “Cucumber”, “Harrington)” for “Bush Pickle)”, “8 to 12 plants,” for “one plant,”, “first leaf was fully emerged.” for “12 to 14 days old.”
# [6] = tested on: Uncinula necator (UNCINE); assay: Grape powdery mildew (UNCINE) whole-plant fungicidal test; format: in vivo; details: 1 Day Protectant
# [7] = tested on: Venturia inaequalis (VENTIN); assay: Apple scab (VENTIN) whole-plant fungicidal test; format: in vivo; details: 1 Day Protectant
smiles,measurement,setting,value
CCCC[C@@H]1[C@@H](Cc2ccc(C(F)(F)F)cc2)CCC[C@H](NC(=O)c2nccc(OC)c2OCOC(C)=O)C(=O)O[C@H]1C [Compound 3],Disease Control at 100 ppm COLLLA 1DP,[1],A (>70)
same,Disease Control at 100 ppm CERCBE 1DP,[2],B (≦70)
same,Disease Control at 25 ppm PHAKPA 1DP,[3]; 1 Day Protectant,B (≦70)
same,Disease Control at 25 ppm PHAKPA 3DC,[3]; 3 Day Curative,B (≦70)
same,Disease Control at 100 ppm ALTESO 1DP,[4],A (>70)
same,Disease Control at 100 ppm RHYNSE 1DP,[5],B (≦70)
same,Disease Control at 100 ppm UNCINE 1DP,[6],A (>70)
same,Disease Control at 100 ppm VENTIN 1DP,[7],A (>70)
